This is an account of results in US11052092B2, “N-{[2-(piperidin-1-yl)phenyl](phenyl)methyl}-2-(3-oxo-3,4-dihydro-2H-1,4-benzoxazin-7-yl)acetamide derivatives and related compounds as ROR-gamma modulators for treating autoimmune diseases” (Genfit, priority 2017, dated 2021).

Structures are written as SMILES.

For one data set, the target named is T1, human RORγt (Homo sapiens, UniProt P51449).
T1 construct: the full-length cDNA of human RORγt; expressed in transfected cells; host or cells: COS-7 (monkey kidney)
T1 sequence (P51449 1-497 isoform P51449-2): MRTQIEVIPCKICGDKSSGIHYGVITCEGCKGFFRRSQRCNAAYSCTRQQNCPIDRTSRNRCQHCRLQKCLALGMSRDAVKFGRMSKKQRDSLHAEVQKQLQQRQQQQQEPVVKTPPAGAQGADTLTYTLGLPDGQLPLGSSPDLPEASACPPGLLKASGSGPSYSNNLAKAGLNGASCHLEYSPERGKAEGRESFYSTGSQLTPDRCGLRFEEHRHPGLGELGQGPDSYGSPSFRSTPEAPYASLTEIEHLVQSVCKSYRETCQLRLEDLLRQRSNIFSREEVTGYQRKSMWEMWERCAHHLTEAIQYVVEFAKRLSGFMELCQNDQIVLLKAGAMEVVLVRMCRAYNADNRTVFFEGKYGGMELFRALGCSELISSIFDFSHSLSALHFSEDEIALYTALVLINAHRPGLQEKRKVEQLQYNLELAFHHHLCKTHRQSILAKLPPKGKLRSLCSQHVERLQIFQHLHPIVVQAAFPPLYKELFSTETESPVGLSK
Description: RORE Luciferase/RORγt transactivation assay. The settings on record: COS-7 cells transfected with human IL-17 promoter luciferase reporter and RORγt plasmid; 20 h with compound; read-out: IC50, RORγt activity inhibition. The format is cell-based. Summed up: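 Transactivation read-out: luminescence (Steady-Glo, 30 min at room temperature) from COS-7 cells carrying a RORγt expression plasmid plus a 4.3 kb IL-17 promoter luciferase reporter. Compound exposure was in serum-free DMEM with 0.3% DMSO final. Reported values are IC50 (μM) and Emax (%).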

The target of data set [1] is T2, RORγt ligand-binding domain (RORγt-LBD) (Homo sapiens, UniProt P51449).
T2 construct: 20 nM recombinantly expressed RORγ-LBD fused to GST
T2 sequence (P51449 269-508 limits assumed): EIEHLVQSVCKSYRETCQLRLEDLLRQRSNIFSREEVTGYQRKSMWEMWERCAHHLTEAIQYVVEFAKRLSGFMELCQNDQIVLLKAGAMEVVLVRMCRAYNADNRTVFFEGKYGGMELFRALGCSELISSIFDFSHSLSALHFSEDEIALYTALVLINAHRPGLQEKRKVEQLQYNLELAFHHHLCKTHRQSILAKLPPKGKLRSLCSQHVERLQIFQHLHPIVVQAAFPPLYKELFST
In words: Time-resolved FRET (TR-FRET) RORγt coactivator assay. The following applies: GST-RORγ-LBD, biotinylated RIP140 peptide, 2 hours at room temperature. A digest of the protocol: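 GST-tagged RORγt-LBD (20 nM) with 30 nM biotinylated RIP140-derived peptide, streptavidin-terbium and d2 anti-GST in CHAPS buffer (1 mM DTT, 2 mM EDTA, 0.1% BSA), 1% DMSO. Compounds at 0.3 nM–30 μM final, equilibrated 2 h, room temperature, dark. Coactivator displacement lowers the TR-FRET signal; IC50 (μM) and Emax (%) reported.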
In general terms: Time-resolved FRET reads energy transfer from a long-lived donor to a nearby acceptor.

The test system of data set [2] is Murine EL-4 lymphoma cell line overexpressing human RORγt. Description: IL-17 secretion from EL4 murine lymphoma. The following applies: Mus musculus; human RORγt-transfected EL4 cells, PMA (10 ng/mL) and ionomycin (1 μM), 24 h; read-out: IC50, IL-17 secretion inhibition. The format is cell-based. A digest of the protocol:
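EL-4 cells electroporated with hRORγt plasmid, seeded at 150000 cells/well and pretreated with compound for 24 h, then stimulated with PMA (10 ng/mL) plus ionomycin (1 μM final) with compound for a further 24 h at 37 °C. IL-17 in supernatant measured by HTRF or ELISA.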

Another data set relates to multiple sclerosis model. The settings on record: administered by injection; cited from earlier work.
The next data set concerns psoriasis model. The settings on record: administered by injection; cited from earlier work.
For data set [3], the system named is patients with moderate to severe psoriasis. The settings on record: cited from earlier work.

For orientation: IC50 means the point on the concentration scale where inhibition reaches its midpoint. With `Cc1ccc(C(NC(=O)Cc2ccc3[nH]cc(C)c3c2)c2ccc(C)o2)c(N2CCCCC2)c1` (stereo not shown) [Cpd. 64, 2-(3-methyl-1H-indol-5-yl)-N-{[4-methyl-2-(piperidin-1-yl)phenyl](5-methylfuran-2-yl)methyl}acetamide], the IC50 at human RORγt was 10 to 100 nM; in data set [1], 100 to 1000 nM; in data set [2] it was < 100 nM.

Consider `Cc1ccc(C(NC(=O)C2(c3ccc4c(c3)CS(=O)(=O)N4)CC2)c2ccc(C)o2)c(N(C)C)c1` (stereo not shown) [Cpd. 71, N-{[2-(dimethylamino)-4-methylphenyl](5-methylfuran-2-yl)methyl}-1-(2,2-dioxo-1,3-dihydro-2,1-benzothiazol-5-yl)cyclopropane-1-carboxamide], for which the IC50 was 10 to 100 nM at human RORγt, < 10 nM in data set [1] and 100 to 1000 nM in data set [2].

On to `Cc1ccc(C(NC(=O)C2(c3ccc4c(c3)CS(=O)(=O)C4)CC2)c2ccc(C)o2)c(C)c1` (stereo not shown) [Cpd. 74, N-[(2,4-dimethylphenyl)(5-methylfuran-2-yl)methyl]-1-(2,2-dioxo-1,3-dihydro-2-benzothiophen-5-yl)cyclopropane-1-carboxamide], for which the IC50 was 10 to 100 nM on human RORγt, < 10 nM in data set [1] and 100 to 1000 nM in data set [2].

Turning to `Cc1ccc(C(NC(=O)Cc2ccc3[nH]c(C)nc3c2)c2ccc(C)o2)c(Br)c1` (stereo not shown) [Cpd. 77, N-[(2-bromo-4-methylphenyl)(5-methylfuran-2-yl)methyl]-2-(2-methyl-1H-1,3-benzodiazol-5-yl)acetamide], the half-maximal inhibitory concentration (IC50) at human RORγt is 10 to 100 nM; in data set [1], < 10 nM; in data set [2], 100 to 1000 nM.

A word on the melting point: it is the temperature of the solid-liquid transition. The molecule `Cc1ccc(C(NC(=O)Cc2ccc3[nH]c(C)nc3c2)c2ccccc2)c(Br)c1` (stereo not shown) [Cpd. 81, N-[(2-bromo-4-methylphenyl)(phenyl)methyl]-2-(2-methyl-1H-1,3-benzodiazol-5-yl)acetamide] showed a melting point of 138 °C. Moreover, the IC50 on human RORγt lay in the range of 10 to 100 nM. For the same molecule, in data set [1], the half-inhibitory concentration (IC50) was 10 to 100 nM. For the same molecule, the IC50 in data set [2] lay within 100 to 1000 nM.

On to `Cc1ccc(C(NC(=O)Cc2ccc3[nH]c(C)nc3c2)c2ccccc2)c(N2CCCC2)c1` (stereo not shown) [Cpd. 82, 2-(2-methyl-1H-1,3-benzodiazol-5-yl)-N-{[4-methyl-2-(pyrrolidin-1-yl)phenyl](phenyl)methyl}acetamide], for which the IC50 at human RORγt lay in the range of 10 to 100 nM; in data set [1], 10 to 100 nM; in data set [2] it was 100 to 1000 nM.

With `Cc1ccc(C(NC(=O)C2(c3ccc4c(c3)CC(=O)N4)CC2)c2ccc(Cl)o2)c(C)c1` (stereo not shown) [Cpd. 86, N-[(5-chlorofuran-2-yl)(2,4-dimethylphenyl)methyl]-1-(2-oxo-2,3-dihydro-1H-indol-5-yl)cyclopropane-1-carboxamide], the IC50 is < 10 nM at human RORγt, < 10 nM in data set [1] and < 100 nM in data set [2].

In the case of `Cc1ccc(C(NC(=O)C2(c3ccc4c(c3)CS(=O)(=O)N4)CC2)c2ccc(Cl)o2)c(C)c1` (stereo not shown) [Cpd. 87, N-[(5-chlorofuran-2-yl)(2,4-dimethylphenyl)methyl]-1-(2,2-dioxo-1,3-dihydro-2,1-benzothiazol-5-yl)cyclopropane-1-carboxamide], the values for the IC50 (at human RORγt; in data set [1]; in data set [2]) were 10 to 100 nM, < 10 nM and < 100 nM, respectively.

Regarding `CCOc1nc2cc(CC(=O)NC(c3ccccc3)c3ccc(C)cc3Br)ccc2[nH]1` (stereo not shown) [Cpd. 90, N-[(2-bromo-4-methylphenyl)(phenyl)methyl]-2-(2-ethoxy-1H-1,3-benzodiazol-5-yl)acetamide], the IC50 at human RORγt is 10 to 100 nM; in data set [1], 10 to 100 nM; in data set [2] it was 100 to 1000 nM.

As for `CSc1ccc2cc(CC(=O)NC(c3ccc(C)o3)c3ccc(C)cc3N3CCCCC3)ccc2c1` (stereo not shown) [Cpd. 91, N-{[4-methyl-2-(piperidin-1-yl)phenyl](5-methylfuran-2-yl)methyl}-2-[6-(methylsulfanyl)naphthalen-2-yl]acetamide], the 50% inhibitory concentration (IC50) lay within 10 to 100 nM at human RORγt, 100 to 1000 nM in data set [1] and 100 to 1000 nM in data set [2].

As for `CCSc1nc2cc(CC(=O)NC(c3ccccc3)c3ccc(C)cc3Br)ccc2[nH]1` (stereo not shown) [Cpd. 92, N-[(2-bromo-4-methylphenyl)(phenyl)methyl]-2-[2-(ethylsulfanyl)-1H-1,3-benzodiazol-5-yl]acetamide], the IC50 on human RORγt is 10 to 100 nM; in data set [1], 100 to 1000 nM; in data set [2], 100 to 1000 nM.

Regarding `Cc1ccc(C(NC(=O)Cc2ccc3[nH]cc(CCS(C)(=O)=O)c3c2)c2ccc(C)o2)c(N2CCCCC2)c1` (stereo not shown) [Cpd. 98, 2-[3-(2-methanesulfonylethyl)-1H-indol-5-yl]-N-{[4-methyl-2-(piperidin-1-yl)phenyl](5-methylfuran-2-yl)methyl}acetamide], the IC50 on human RORγt was 10 to 100 nM; in data set [1] it was 10 to 100 nM; in data set [2], < 100 nM.

`Cc1ccc(C(NC(=O)Cc2ccc3c(ccn3C(=O)C3CCOCC3)c2)c2ccc(C)o2)c(N2CCCCC2)c1` (stereo not shown) [Cpd. 118, N-{[4-methyl-2-(piperidin-1-yl)phenyl](5-methylfuran-2-yl)methyl}-2-[1-(oxane-4-carbonyl)-1H-indol-5-yl]acetamide] returned a melting point of 96 °C. Also, the 50% inhibitory concentration (IC50) at human RORγt fell in the range of 10 to 100 nM. This molecule returned a half-inhibitory concentration (IC50) in data set [1] of 100 to 1000 nM. In addition, the IC50 in data set [2] is < 100 nM.

As for `Cc1ccc(C(NC(=O)C2(c3ccc4c(c3)OCS(=O)(=O)N4)CC2)c2ccc(C)o2)c(C)c1` (stereo not shown) [Cpd. 124, N-[(2,4-dimethylphenyl)(5-methylfuran-2-yl)methyl]-1-(2,2-dioxo-1,3-dihydro-4,2,1-benzoxathiazin-6-yl)cyclopropane-1-carboxamide], the IC50 at human RORγt was 10 to 100 nM; in data set [1], < 10 nM; in data set [2], 100 to 1000 nM.

`Cc1ccc(C(NC(=O)C2(c3ccc4c(c3)C(=O)C(=O)N4)CC2)c2ccc(C)o2)c(C)c1` (stereo not shown) [Cpd. 125, N-[(2,4-dimethylphenyl)(5-methylfuran-2-yl)methyl]-1-(2,3-dioxo-2,3-dihydro-1H-indol-5-yl)cyclopropane-1-carboxamide]: the IC50 at human RORγt is 10 to 100 nM; in data set [1] it was < 10 nM; in data set [2], < 100 nM.

Regarding `CC(=O)N1Cc2ccc(C3(C(=O)NC(c4ccc(C)o4)c4ccc(C)cc4C)CC3)cc2C1` (stereo not shown) [Cpd. 127, 1-(2-acetyl-2,3-dihydro-1H-isoindol-5-yl)-N-[(2,4-dimethylphenyl)(5-methylfuran-2-yl)methyl]cyclopropane-1-carboxamide], the IC50 on human RORγt is 10 to 100 nM; in data set [1] it was < 10 nM; in data set [2] it was < 100 nM.

For `Cc1ccc(C(NC(=O)C2(c3ccc4c(c3)CC(=O)N4C)CC2)c2ccc(C)o2)c(C)c1` (stereo not shown) [Cpd. 130, N-[(2,4-dimethylphenyl)(5-methylfuran-2-yl)methyl]-1-(1-methyl-2-oxo-2,3-dihydro-1H-indol-5-yl)cyclopropane-1-carboxamide], the IC50 at human RORγt is 10 to 100 nM; in data set [1], < 10 nM; in data set [2] it was < 100 nM.

In the case of `CC(=O)Nc1nc(C)c(S(=O)(=O)Nc2ccc(C(O)(C(F)(F)F)C(F)(F)F)cc2)s1` [SR1001], in the data set with multiple sclerosis model, the “efficacy in multiple sclerosis model” value was “efficacious”.

For `Cc1ccc([C@@H](NC(=O)Cc2ccc3oc([C@@H](O)c4c(C)noc4C)cc3c2)c2ccccc2)c(C)c1` [TMP778], the “efficacy in psoriasis model” value in the data set on psoriasis model is “efficacious”.

On to `CCS(=O)(=O)c1ccc(CNC(=O)c2cnc3c(c2)CN(C[C@H]2CC[C@H](C(F)(F)F)CC2)[C@H]3C(C)C)nc1` [VTP-43742], for which, in data set [3] (350 mg dose group), the “reduction in the Psoriasis Area Severity Index (PASI) score relative to placebo” value is recorded as 24%. The “placebo-adjusted PASI score reduction” value in data set [3] (700 mg dose group) was 30%. Also, the “plasma IL-17 levels” value in data set [3] (relative to placebo) is reported as “reduced”.
